Measurements: the supplement of paper PMC10307832

Experiments:
Test in all cases: relative viability (nuclei count vs DMSO), 5 days (fraction); higher = more cells survive
[1] = compound: Cc1nc(Nc2ncc(C(=O)Nc3c(C)cccc3Cl)s2)cc(N2CCN(CCO)CC2)n1 [Dasatinib] + CS(=O)(=O)CCNCc1ccc(-c2ccc3ncnc(Nc4ccc(OCc5cccc(F)c5)c(Cl)c4)c3c2)o1 [Lapatinib] (partner 2 µM)
Procedure, shortened: (§1)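 Relative viability was taken as the ratio of nuclei in treated wells to nuclei in vehicle wells. Lung cancer cell lines in 1536-well plates received compounds by pin tool one day after seeding, either one drug alone or a fixed anchor-drug dose plus five library-drug doses (not always all listed) in √10 steps. Nuclei were counted on 4× images after 5 days of treatment, and values are medians of duplicate plates.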

[2] = compound: Cc1ccc(C(=O)Nc2cccc(C(F)(F)F)c2)cc1Nc1cncc(C(N)=O)c1 [ALW-II-49-7] + Nc1nc2[nH]cc(CCc3ccc(C(=O)N[C@@H](CCC(=O)O)C(=O)O)cc3)c2c(=O)[nH]1 [Pemetrexed] (partner 0.2 µM)
Procedure, shortened: as §1

[3] = compound: Cc1nc(Nc2ncc(C(=O)Nc3c(C)cccc3Cl)s2)cc(N2CCN(CCO)CC2)n1 [Dasatinib] + Nc1nc2[nH]cc(CCc3ccc(C(=O)N[C@@H](CCC(=O)O)C(=O)O)cc3)c2c(=O)[nH]1 [Pemetrexed] (partner 0.2 µM)
Procedure, shortened: as §1

[4] = compound: C1CC1C(=O)NC2=NNC3=C2C=CC(=C3)C4=CC(=CC=C4)C(=O)NC5CC5 [XMD13-2] + CS(=O)(=O)CCNCc1ccc(-c2ccc3ncnc(Nc4ccc(OCc5cccc(F)c5)c(Cl)c4)c3c2)o1 [Lapatinib] (partner 2 µM)
Procedure, shortened: as §1

Cell Line | relative viability ([1]; first compound 0.005 µM) | relative viability ([1]; first compound 0.01581 µM) | relative viability ([1]; first compound 0.05 µM) | relative viability ([1]; first compound 0.1581 µM) | relative viability ([1]; first compound 0.5 µM) | relative viability ([2]; first compound 0.08 µM) | relative viability ([2]; first compound 0.253 µM) | relative viability ([2]; first compound 0.8 µM) | relative viability ([2]; first compound 2.53 µM) | relative viability ([2]; first compound 8 µM) | relative viability ([3]; first compound 0.005 µM) | relative viability ([3]; first compound 0.01581 µM) | relative viability ([3]; first compound 0.05 µM) | relative viability ([3]; first compound 0.1581 µM) | relative viability ([3]; first compound 0.5 µM) | relative viability ([4]; first compound 0.05 µM) | relative viability ([4]; first compound 0.1581 µM) | relative viability ([4]; first compound 0.5 µM) | relative viability ([4]; first compound 1.581 µM) | relative viability ([4]; first compound 5 µM)
HCC-78 | 0.359 | 0.694 | 0.696 | 0.478 | 0.19 | 0.888 | 0.846 | 0.91 | 0.884 | 0.891 | 0.913 | 0.894 | 0.936 | 0.899 | 0.76 | 1.2 | 0.775 | 0.782 | 0.616 | 0.521
HCC-366 | 0.99 | 0.713 | 0.695 | 0.446 | 0.337 | 0.195 | 0.188 | 0.155 | 0.195 | 0.131 | 0.173 | 0.147 | 0.166 | 0.177 | 0.114 | 1.3 | 1.04 | 1.07 | 1.09 | 1.12
HCC-827 | 0.173 | 0.18 | 0.139 | 0.16 | 0.131 | 0.275 | 0.259 | 0.173 | 0.176 | 0.25 | 0.253 | 0.251 | 0.256 | 0.239 | 0.133 | 0.19 | 0.2 | 0.172 | 0.243 | 0.2
HOP-62 | 1.02 | 0.971 | 0.789 | 0.983 | 0.337 | 0.313 | 0.35 | 0.322 | 0.307 | 0.243 | 0.284 | 0.279 | 0.352 | 0.326 | 0.274 | 1.17 | 1.02 | 1.09 | 1.25 | 1.07
IA-LM | 0.996 | 0.828 | 1.08 | 0.55 | 0.436 |  |  |  |  |  |  |  |  |  |  | 0.812 | 0.869 | 0.751 | 0.682 | 0.47
LC-2-ad | 0.648 | 0.876 | 0.952 | 0.699 | 0.186 | 0.249 | 0.258 | 0.273 | 0.229 | 0.267 | 0.262 | 0.253 | 0.256 | 0.237 | 0.214 | 1.01 | 1.06 | 0.971 | 0.885 | 0.855
LCLC-97TM1 | 1.2 | 1.2 | 0.772 | 0.904 | 0.362 | 0.147 | 0.161 | 0.176 | 0.16 | 0.148 | 0.195 | 0.184 | 0.177 | 0.182 | 0.143 | 1.19 | 0.693 | 1.23 | 0.75 | 0.825
LCLC-103H |  |  |  |  |  | 0.533 | 0.502 | 0.477 | 0.462 | 0.419 | 0.517 | 0.437 | 0.481 | 0.461 | 0.328 |  |  |  |  | 
LK-2 | 0.772 | 0.612 | 0.412 | 0.313 | 0.283 | 0.244 | 0.282 | 0.316 |  | 0.201 | 0.286 |  | 0.201 | 0.128 | 0.202 | 0.977 | 0.912 | 1.12 | 1.03 | 0.743
